In data set [1] the target is T1, LINE1 reverse transcriptase (Homo sapiens, UniProt O00370). In words: Transient artificial-intron Cis LINE1 reporter assay. It is filed as cell-based. Further details: expressed in transfected cells. Here is the method: Intron-disrupted Firefly luciferase (FLuc) expression cassettes were generated as described by Xie, Y. et al. “Characterization of L1 retrotransposition with high-throughput dual-luciferase assays,” Nucleic Acid Res. (2011) Vol. 39, No. 3, e16. In addition, the plasmid contained an intact Renilla luciferase (RLuc) expression cassette on the vector backbone, in order to normalize transfection efficiency and measure potential cell toxicity.
HEK 293 cells were seeded in 96-well plates at 1,000 cells/well in 55 μL and grown for 24 hours. Cells were transfected with FuGeneHD (Promega) following the manufacturer's protocol. Each well received 0.133 ng plasmid, 0.4 μL FuGeneHD reagent, and 4.5 μL GlutaMAX-I-supplemented Opti-MEM I reduced-serum medium (Invitrogen). Cells were simultaneously treated with test compound serially diluted starting at 100 μM in a 3-fold dilution dose response.
Luminescence was measured using the Dual-Glo Luciferase Assay System (Promega) following the manufacturer's instructions. The ratio between FLuc and RLuc gene expression (each of which was normalized against its expression in a control well without test compound) was used to report LINE1 activity.
(In general: A reporter such as luciferase makes a cellular process visible.)

The target of data set [2] is T1, LINE1 reverse transcriptase. In words: Stable artificial-intron Cis LINE1 reporter assay. It is filed as cell-based. The arrangement: expressed in transfected cells; host or cells: HeLa Tet-On 3G (Takara, cat no 631183). From the text: A stable HeLa Tet-On 3G (Takara, cat no 631183) cell line expressing a bi-directional inducible LINE1 construct was generated as described in Xie, Y. et al. “Cell division promotes efficient retrotransposition in a stable L1 reporter cell line,” Mobile DNA (2013) 4:10. Single cell clones were screened for high Luciferase expression and the highest expression Firefly expressing clone was chosen for compound testing.
Test compounds were serially diluted in DMSO and spotted in 96-well plates. Subsequently the HeLa L1 artificial-intron reporter cells were plated into the compound-containing wells (8,000 cells/well), and the cells were induced for reporter expression with doxycycline (Sigma cat no D9891) at a final concentration of 500 ng/mL. Luminescence was measured 72 h after plating using the Dual-Glo Luciferase Assay System (Promega cat no E2940) following the manufacturer's instructions. The Firefly Luciferase activity (normalized against its activity in a control well without test compound) was used to report LINE1 activity.

A further data set has as its system Type 1 Interferon. Put plainly: Cellular assay for altering IFN production in THP1 TREX1 KO cells. It counts as cell-based. Particulars: THP1-Dual KO-TREX1 cells, 1 μM 5-aza-2′-deoxycytidine, five days; direction of effect per figure legend. As for the experimental part:
(§1) THP1-Dual™ KO-TREX1 cells were purchased from Invivogen (cat #thpd-kotrex). The THP1-Dual™ KO-TREX1 cells were cultured in RPMI 1640, 10% heat-inactivated fetal bovine serum, 25 mM HEPES, 10 μg/mL Blasticidin, and 100 μg/mL Zeocin. THP1-Dual™ KO-TREX1 cells were treated with a dose titration of test compound in the presence of 1 μM 5-aza-2′-deoxycytidine (Sigma, cat #189825). Type 1 Interferon and cell viability were assessed after five days of treatment.
Stock solution of test compound was prepared in DMSO followed by a three-fold dilution in DMSO. Additional 50× dilution was prepared in cell culture media for each dilution. 10 μL of diluted test compound was then added to a 384-well plate.
THP1-Dual™ KO-TREX1 cells were treated with 1 μM 5-aza-2′-deoxycytidine. The THP1-Dual™ KO-TREX1 cells (50 μL) were added to each well of the 384-well plate containing test compound titration at 10,000 cells/well. Cells were incubated at 37° C., 5% CO2 in a humidified incubator for five days. On day five, 20 μL of cell supernatant was transferred to a 384-well, white-walled plate, followed by addition to each well of 50 μL of QUANTI-LUC solution containing stabilizer. Luminescence was detected on a plate reader according to manufacturer's instructions. Percent inhibition of interferon was calculated using the following analysis: (Average DMSO−Sample)/(Average DMSO−Average 30 μM control reagent)*100. Percent induction of interferon was calculated using the following analysis: (Sample−Average DMSO)/(10 μM control reagent−Average DMSO)*100.

The nature of data set [3]: CellTiter-Glo cell viability in THP1-Dual KO-TREX1 cells. It counts as cell-based. To be noted: human, 10 μM compound (highest dose), five days, read-out: CellTiter-Glo average inhibition (cell viability). As for the experimental part: as §1
THP1-Dual™ KO-TREX1 cells were treated with 1 μM 5-aza-2′-deoxycytidine. The THP1-Dual™ KO-TREX1 cells (50 μL) were added to each well of the 384-well plate containing test compound titration at 10,000 cells/well. Cells were incubated at 37° C., 5% CO2 in a humidified incubator for five days. […] Luminescence was detected on a plate reader according to manufacturer's instructions. […] Percent induction of interferon was calculated using the following analysis: (Sample−Average DMSO)/(10 μM control reagent−Average DMSO)*100.
The remaining cells were assessed for cell viability by adding 30 μl of CellTiter-Glo (Promega, G9683) solution to each well, and placed on a shaker for 10 minutes at room temperature. Luminescence was detected on a plate reader, according to manufacturer's instructions. Percent inhibition of cell viability using CellTiter-Glo was calculated using the following analysis. […]

For data set [4], the target named is T2, recombinant MBP-tagged LINE1 protein (238-1061) (Homo sapiens, UniProt O00370).
T2 construct: recombinant MBP-tagged LINE1 protein (238-1061); made in house
Put plainly: Homogeneous time-resolved fluorescence (HTRF) LINE1 RT assay. It is filed as biochemical. To be noted: tetra(sodium) salt; 25° C., 60 minutes. Here is the method: The LINE1 reverse transcriptase homogeneous time-resolved fluorescence (HTRF) assay was performed with recombinant MBP-tagged LINE1 protein (238-1061) (generated and purified according to procedures in Dai L. et al. BMC Biochemistry 2011; 12:18) in a 384-well format. Test compound was serially diluted in DMSO and further diluted in the assay buffer (50 mM Tris-HCl, 50 mM KCl, 10 mM MgCl2, 10 mM DTT, pH 8.1) to achieve a final DMSO concentration of 1%. The serially diluted compound was mixed with 64 ng/well of LINE1 enzyme, 5 nM of pre-annealed template/biotin-primer pair (synthesized at Generay Biotechnology), 10 nM of Fluorescein-12-dATP fluorescent probe (Perkin Elmer), and 1 μM dGTP/dCTP/dTTP (Thermo Fisher Scientific) in the assay buffer. The template/biotin-primer sequences were as follows:
After incubating at 25° C. for 60 minutes, the detection reagent (20 mM EDTA with streptavidin-terbium cryptate, Cisbio Bioassay) in the PPI buffer (Cisbio Bioassay) was added, and the mixture was incubated at 25° C. for 30 minutes. At the end of the incubation, fluorescence was read at ex/em=337/485 nm and ex/em=337/520 nm on an Envision 2104 plate reader (Perkin Elmer). The fluorescence ratio at 520/485 nm was used for the calculation. […] The IC50 was calculated by fitting the compound dose inhibition curve with a 4-parameter non-linear regression equation.
For orientation: Time-resolved FRET reads energy transfer from a long-lived donor to a nearby acceptor.

In data set [5] the target is T3, HERV-K reverse transcriptase (2-596)-8His protein (Homo sapiens, UniProt V9H0F6).
T3 construct: fused on or other part: C-terminal 8His tag
In words: Homogeneous time-resolved fluorescence (HTRF) HERV-K RT assay. It counts as biochemical. To be noted: tetra(sodium) salt; 25° C., 30 minutes. Here is the method:
The HERV-K reverse transcriptase homogeneous time-resolved fluorescence (HTRF) assay was performed in a 384-well format with HERV-K reverse transcriptase (2-596)-8His protein. Baculoviruses were created using Bac-to-Bac technology (Invitrogen). pFastBac donor plasmids containing HERV-K reverse transcriptase sequence (NCBI GenBank number AAC63291.1, J. Virology (1999) Vol. 73, No. 3, pp. 2365-2375) were transformed into DH10 Bac cells following the manufacturer's instructions. Recombinant bacmids were then isolated clonally and transfected into SF9 cells with lipofectin. HERV-K reverse transcriptase was expressed in the SF9 insect cells and then purified using immobilized metal affinity chromatography (IMAC) followed by size-exclusion chromatography (SEC). […]
After incubating at 25° C. for 30 minutes, the detection reagent 20 mM EDTA with streptavidin-terbium cryptate (Cisbio Bioassay) in the PPI buffer (Cisbio Bioassay) was added, and the mixture was incubated at 25° C. for 60 minutes. At the end of the incubation, fluorescence was read at ex/em=337/485 nm and ex/em=337/520 nm on an Envision 2104 plate reader (Perkin Elmer). The fluorescence ratio at 520/485 nm was used for the calculation. […] The IC50 was calculated by fitting the compound dose inhibition curve with a 4-parameter non-linear regression equation.

Setting [6] is: HEK 293 cells, transient LINE1 reporter, no detectable IC50 when tested at concentrations up to 100 μM, read-out: IC50.
[7] abbreviates: HeLa Tet-On 3G L1 reporter cells, doxycycline 500 ng/mL, 72 h, Firefly luciferase, read-out: IC50.
Where [8] appears, read: HEK 293 cells, FLuc/RLuc ratio, transient LINE1 reporter, read-out: IC50.

Where only a bound is given, the exact number is not on record here.

T3 sequence (V9H0F6 entry or part of it): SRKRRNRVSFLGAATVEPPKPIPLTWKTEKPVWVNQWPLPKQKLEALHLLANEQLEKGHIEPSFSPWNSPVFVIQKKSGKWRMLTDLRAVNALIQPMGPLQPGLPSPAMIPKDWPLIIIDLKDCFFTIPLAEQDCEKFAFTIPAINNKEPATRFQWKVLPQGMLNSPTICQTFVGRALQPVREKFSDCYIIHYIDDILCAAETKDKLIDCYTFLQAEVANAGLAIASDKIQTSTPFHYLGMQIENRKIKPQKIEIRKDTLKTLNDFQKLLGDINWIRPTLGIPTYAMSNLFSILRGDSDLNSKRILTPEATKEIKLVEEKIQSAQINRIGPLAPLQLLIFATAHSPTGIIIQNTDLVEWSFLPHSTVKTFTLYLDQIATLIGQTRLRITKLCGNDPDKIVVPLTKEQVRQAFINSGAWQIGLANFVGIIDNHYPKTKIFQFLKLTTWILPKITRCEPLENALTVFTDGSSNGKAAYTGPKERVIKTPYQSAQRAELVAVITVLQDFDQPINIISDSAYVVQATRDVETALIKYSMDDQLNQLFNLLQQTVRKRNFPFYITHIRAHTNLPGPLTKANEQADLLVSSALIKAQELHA

`Cc1cn([C@H]2C[C@H](N=[N+]=[N-])[C@@H](CO)O2)c(=O)[nH]c1=O` [AZT (zidovudine), zidovudine, reference compound]: the IC50 – broadly, the concentration at which inhibition is half-maximal – was above 100000 nM in data set [1] (setting [6]) and above 500 nM in data set [2] (setting [7]).
As to `CC(C)OC(=O)[C@H](C)N[P@](=O)(CO[C@H](C)Cn1cnc2c(N)ncnc21)Oc1ccccc1` [Compound I-1], the “changes in IFN levels (inhibition or induction of IFN)” value in the data set on Type 1 Interferon is given as “inhibition of IFN”. In addition, the cytotoxicity at 5 days, 10 μM in data set [3] stood at 57%. The IC50 in data set [1] and in data set [2] was below 50 nM throughout.
On to `CC(C)OC(=O)C(C)(C)N[P@](=O)(CO[C@H](C)Cn1cnc2c(N)ncnc21)Oc1ccccc1` [Compound I-20], for which the “changes in IFN levels (inhibition or induction of IFN)” value in the data set on Type 1 Interferon is given as “inhibition of IFN”. The cytotoxicity at 5 days, 10 μM in data set [3] was determined as 65%. The IC50 in data set [2] (setting [7]) is below 50 nM.
As to `CC(C)OC(=O)C(C)(C)N[P@@](=O)(CO[C@H](C)Cn1cnc2c(N)ncnc21)Oc1ccccc1` [Compound I-21], the “changes in IFN levels (inhibition or induction of IFN)” value with Type 1 Interferon is given as “induction of IFN”. Moreover, the IC50 in data set [2] (setting [7]) was in the range of 50 to 500 nM.
The corresponding values for `CC(C)OC(=O)[C@H](C)NP(=O)(CO[C@H](C)Cc1ccc2c(N)ncnn12)Oc1ccccc1` (some centres unmarked) [Compound I-115] are “induction of IFN” and 50 to 500 nM.
Turning to `C[C@H](Cn1cnc2c(N)ncnc21)OCP(=O)(O)O` [Compound V-1], in the data set with Type 1 Interferon, the “changes in IFN levels (inhibition or induction of IFN)” value is recorded as “inhibition of IFN”. Moreover, the IC50 in data set [1] (setting [8]) and in data set [2] (setting [7]) was above 500 nM throughout.
`CC(C)OC(=O)OCOP(=O)(CO[C@H](C)Cn1cnc2c(N)ncnc21)OCOC(=O)OC(C)C` [Compound V-7]: the IC50 in data set [1] (setting [8]) was below 50 nM; in data set [2] (setting [7]), 50 to 500 nM.
Turning to `C[C@H](Cc1ccc2c(N)ncnn12)OCP(=O)(O)O` [Compound V-105], the IC50 in data set [2] (setting [7]) was above 500 nM.
For the molecule `CC(C)OC(=O)OCOP(=O)(CO[C@H](C)Cc1ccc2c(N)ncnn12)OCOC(=O)OC(C)C` [Compound V-106], the IC50 in data set [2] (setting [7]) is above 500 nM.
For `CCCCCCCCCCCCCCCCOCCCOP(=O)(O)CO[C@H](C)Cn1cnc2c(N)ncnc21` [VI-1], the “changes in IFN levels (inhibition or induction of IFN)” value in the data set on Type 1 Interferon was “induction of IFN”. The IC50 in data set [2] (setting [7]) lay in the range of 50 to 500 nM.
Consider `Nc1ccn([C@H]2CO[C@@H](CO)S2)c(=O)n1` [apricitabine], for which the IC50 in data set [1] (setting [6]) was above 100000 nM.
In the case of `C[C@H](Cn1cnc2c(N)ncnc21)OCP(=O)(O)OP(=O)(O)OP(=O)(O)O` [drawing 1227], in data set [4], the IC50 is 71 nM.
Turning to `C[C@H](Cn1cnc2c(N)ncnc21)OCP(=O)(O)OP(=O)(O)OP(=O)(O)O` [drawing 1228], the IC50 in data set [5] came out at 20 nM.
As for `Nc1ccn([C@@H]2CS[C@H](CO)O2)c(=O)n1` [lamivudine (3TC), lamivudine, reference compound], the IC50 in data set [1] (setting [6]) was above 100000 nM; in data set [2] (setting [7]), above 500 nM.
On to `Nc1nc(=O)c2ncn([C@@H]3C[C@H](CO)[C@H]3CO)c2[nH]1` [lobucavir, reference compound], for which the IC50 in data set [1] (setting [6]) was above 100000 nM; in data set [2] (setting [7]), above 500 nM.

The values are drawn from patent publication US20250268925A1, “METHODS OF TREATING MEDICAL CONDITIONS AND INHIBITING LINE1 REVERSE TRANSCRIPTASE USING A SUBSTITUTED ADENINYL-PROPYLOXY PHOSPHONIC ACID OR RELATED COMPOUND” (ROME THERAPEUTICS, INC., priority 2021, published 2025).
